Patent publication US20210221848A1, “POLYMYXIN DERIVATIVES AND THEIR USE IN COMBINATION THERAPY TOGETHER WITH DIFFERENT ANTIBIOTICS” (priority 2014, published 2021)
Read-outs that look alike come from different tables or passages of the source.

Assays:
E. coli [1] = test: MIC in the presence of a fixed concentration (2 μg/mL) of Rifampicin; type: cell-based, Escherichia coli; settings: Rifampicin 2 μg/mL, Table 5D
K. pneumoniae [2] = test: as above; type: cell-based, Klebsiella pneumoniae; settings: Rifampicin 2 μg/mL, Table 5D
Experimental: (§1) The inoculum was prepared by making a direct suspension of isolated colonies (selected from an 18-24 hour Mueller-Hinton agar plate) adjusted to the 0.5 McFarland standard. […] The assays were performed in duplicate. […] In cases where the duplicate values varied by less than 2-fold, the lower of the two values is reported. If a variation of greater than 2-fold was observed, the assay was considered non-valid. Several of the compounds were subjected to multiple tests, and where this is the case, the MIC reflects the modal value obtained.

A. baumannii [3] = test: MIC in the presence of […] of rifampicin; type: cell-based, Acinetobacter baumannii; settings: for MIC in combination with Rifampicin, A. baumannii ATCC BAA-747: A. baumannii ATCC BAA-747, Table 5D; for MIC in combination with Rifampicin, A. baumannii NCTC 13424: A. baumannii NCTC 13424, Table 5D
Experimental: as §1

[4] = test system: E. coli strains with elevated MICs to Polymyxin B; test: MIC against strains with elevated MICs to Polymyxin B; type: cell-based, Escherichia coli; settings: Table 6D; for MIC E. coli 058: strain 058, elevated MIC to Polymyxin B; for MIC E. coli 059: strain 059, elevated MIC to Polymyxin B; for MIC E. coli 060: strain 060, elevated MIC to Polymyxin B; for MIC E. coli 061: strain 061, elevated MIC to Polymyxin B
Outline: (§2)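 Colonies picked from an 18-24 hour Mueller-Hinton agar plate are suspended directly and adjusted to 0.5 McFarland. Each MIC is run in duplicate. Values within 2-fold give the lower one; wider spread voids the assay; repeated testing yields the modal value.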

[5] = test system: K. pneumoniae strains with elevated MICs to Polymyxin B; test: as above; type: cell-based, Klebsiella pneumoniae; settings: Table 6D; for MIC K. pneumoniae 062: strain 062, elevated MIC to Polymyxin B; for MIC K. pneumoniae 063: strain 063, elevated MIC to Polymyxin B; for MIC K. pneumoniae 064: strain 064, elevated MIC to Polymyxin B
Outline: as §2

[6] = test system: P. aeruginosa strains with elevated MICs to Polymyxin B; test: as above; type: cell-based, Pseudomonas aeruginosa; settings: Table 6D; for MIC P. aeruginosa 066: strain 066, elevated MIC to Polymyxin B; for MIC P. aeruginosa 067: strain 067, elevated MIC to Polymyxin B; for MIC P. aeruginosa 065: strain 065, elevated MIC to Polymyxin B
Outline: as §2

[7] = test system: A. baumanii strains with elevated MICs to Polymyxin B; test: as above; type: cell-based, Acinetobacter baumannii; settings: Table 6D; for MIC A. baumannii 053: strain 053, elevated MIC to Polymyxin B; for MIC A. baumannii 056: strain 056, elevated MIC to Polymyxin B; for MIC A. baumannii 068: strain 068, elevated MIC to Polymyxin B
Outline: as §2

E. coli [8] = test system: E. coli
K. pneumoniae [9] = test system: K. pneumoniae
A. baumannii [10] = test system: A. baumannii
[11] = absence of a second agent, Table 6B

Row | Substance | MIC in combination with Rifampicin, E. coli ATCC 25922 (E. coli [1]) | MIC in combination with Rifampicin, K. pneumoniae ATCC 4352 (K. pneumoniae [2]) | MIC in combination with Rifampicin, K. pneumoniae ATCC BAA-2146 (K. pneumoniae [2]) | MIC in combination with Rifampicin, A. baumannii ATCC BAA-747 (A. baumannii [3]) | MIC in combination with Rifampicin, A. baumannii NCTC 13424 (A. baumannii [3]) | MIC E. coli 058 [4] | MIC, E. coli ATCC 25922 (E. coli [8]; [11]) | MIC, E. coli NCTC 13441 (E. coli [8]; [11]) | MIC, K. pneumoniae ATCC 4352 (K. pneumoniae [9]; [11]) | MIC, K. pneumoniae ATCC BAA-2146 (K. pneumoniae [9]; [11]) | MIC, P. aeruginosa ATCC 27853 (P. aeruginosa; [11]) | MIC, P. aeruginosa CCUG 59347 (P. aeruginosa; [11]) | MIC, A. baumannii ATCC BAA-747 (A. baumannii [10]; [11]) | MIC, A. baumannii NCTC 13424 (A. baumannii [10]; [11]) | MIC in combination with Rifampicin, E. coli NCTC 13441 (E. coli [1]) | further results
1 | 2-(2-aminoethyl)- undecanoyl polymyxin B nonapeptide [Example D27] | 0.125 micrograms/mL | 0.5 micrograms/mL | 4 micrograms/mL | 1 micrograms/mL | 1 micrograms/mL | 2 micrograms/mL | 0.125 micrograms/mL | 0.06 micrograms/mL | 0.25 micrograms/mL | 0.5 micrograms/mL | 0.5 micrograms/mL | 0.5 micrograms/mL | 0.25 micrograms/mL | 1 micrograms/mL |  | MIC E. coli 059 [4]: 2 micrograms/mL; MIC E. coli 060 [4]: 4 micrograms/mL; MIC E. coli 061 [4]: 16 micrograms/mL; MIC K. pneumoniae 062 [5]: 16 micrograms/mL; MIC K. pneumoniae 063 [5]: 64 micrograms/mL; MIC K. pneumoniae 064 [5]: 16 micrograms/mL; MIC K. pneumoniae 655 ([5]; strain 655, elevated MIC to Polymyxin B): 64 micrograms/mL; MIC P. aeruginosa 066 [6]: 16 micrograms/mL; MIC P. aeruginosa 067 [6]: >64 micrograms/mL; MIC A. baumannii 053 [7]: 64 micrograms/mL; MIC A. baumannii 056 [7]: 32 micrograms/mL; MIC A. baumannii 068 [7]: 2 micrograms/mL; MIC A. baumannii 070 ([7]; strain 070, elevated MIC to Polymyxin B): 4 micrograms/mL
2 | (5-Phenyl-piperidine)- 3-carbonyl polymyxin B nonapeptide [Example D7] | 0.06 micrograms/mL | 0.125 micrograms/mL | 0.5 micrograms/mL | 1 micrograms/mL | 0.03 micrograms/mL |  | >8 micrograms/mL | >8 micrograms/mL | 8 micrograms/mL | >8 micrograms/mL | 2 micrograms/mL | >8 micrograms/mL | >8 micrograms/mL | >8 micrograms/mL | 0.5 micrograms/mL | 
3 | (trans-5-cyclohexyl- piperidine)-3-carbonyl polymyxin B nonapeptide [Example D13] | 0.06 micrograms/mL | 0.125 micrograms/mL | 0.125 micrograms/mL | 0.125 micrograms/mL | 0.06 micrograms/mL |  |  | 0.125 micrograms/mL | 0.125 micrograms/mL | 0.25 micrograms/mL | 0.5 micrograms/mL | 0.5 micrograms/mL | 0.5 micrograms/mL | 0.125 micrograms/mL | 0.125 micrograms/mL | 
4 | (trans-5-cyclohexyl- piperidine)-3-carbonyl polymyxin B nonapeptide [Example D12] | 0.06 micrograms/mL | 0.125 micrograms/mL | 0.25 micrograms/mL | 0.5 micrograms/mL | 0.03 micrograms/mL |  | >8 micrograms/mL | >8 micrograms/mL | >8 micrograms/mL | >8 micrograms/mL | 1 micrograms/mL | 4 micrograms/mL | >8 micrograms/mL | >8 micrograms/mL | 0.25 micrograms/mL | 
5 | (cis-5-cyclohexyl- piperidine)-3-carbonyl polymyxin B nonapeptide [Example D10] |  | 0.125 micrograms/mL | 0.25 micrograms/mL | 0.5 micrograms/mL | ≤0.015 micrograms/mL |  | 4 micrograms/mL | 4 micrograms/mL | 8 micrograms/mL | >8 micrograms/mL | 1 micrograms/mL | 2 micrograms/mL | >8 micrograms/mL | 8 micrograms/mL | 0.5 micrograms/mL | 
6 | (5-Phenyl-piperidine)- 3-carbonyl polymyxin B nonapeptide [Example D8] | ≤0.015 micrograms/mL | 0.03 micrograms/mL | 0.06 micrograms/mL | 0.03 micrograms/mL | ≤0.015 micrograms/mL |  | 0.125 micrograms/mL | 0.25 micrograms/mL | 0.125 micrograms/mL | 0.5 micrograms/mL | 0.5 micrograms/mL | 1 micrograms/mL | 0.25 micrograms/mL | 0.5 micrograms/mL |  | 
7 | 5- (isobutoxy)piperi- dine-3-carbonyl Polymyxin B nonapeptide [Example D63] |  |  |  |  |  | 16 micrograms/mL |  |  |  |  |  |  |  |  |  | MIC E. coli 061 [4]: 32 micrograms/mL; MIC K. pneumoniae 062 [5]: 128 micrograms/mL; MIC K. pneumoniae 064 [5]: 4 micrograms/mL; MIC P. aeruginosa 065 [6]: 4 micrograms/mL; MIC P. aeruginosa 066 [6]: 32 micrograms/mL; MIC P. aeruginosa 067 [6]: >256 micrograms/mL; MIC A. baumannii 056 [7]: 128 micrograms/mL; MIC, E. coli ATCC 25922 (E. coli [8]; sole activity, Table 6C): 0.06 micrograms/mL; MIC, E. coli NCTC 13441 (E. coli [8]; sole activity, Table 6C): 0.125 micrograms/mL; MIC, K. pneumoniae ATCC 4352 (K. pneumoniae [9]; sole activity, Table 6C): 0.125 micrograms/mL; MIC, K. pneumoniae ATCC BAA-2146 (K. pneumoniae [9]; sole activity, Table 6C): 0.125 micrograms/mL; MIC, P. aeruginosa ATCC 27853 (P. aeruginosa; sole activity, Table 6C): 0.5 micrograms/mL; MIC, P. aeruginosa CCUG 59347 (P. aeruginosa; sole activity, Table 6C): 0.5 micrograms/mL; MIC, A. baumannii ATCC BAA-747 (A. baumannii [10]; sole activity, Table 6C): 0.25 micrograms/mL; MIC, A. baumannii NCTC 13424 (A. baumannii [10]; sole activity, Table 6C): 0.25 micrograms/mL
8 | 1-(2- hydroxybenzyl)pi- perazine-2- carbonyl Polymyxin B nonapeptide [Example D67] |  |  |  |  |  | 8 micrograms/mL |  |  |  |  |  |  |  |  |  | MIC E. coli 059 [4]: 64 micrograms/mL; MIC E. coli 060 [4]: 16 micrograms/mL; MIC K. pneumoniae 063 [5]: 128 micrograms/mL; MIC P. aeruginosa 065 [6]: 4 micrograms/mL; MIC A. baumannii 053 [7]: >256 micrograms/mL; MIC A. baumannii 068 [7]: 64 micrograms/mL; MIC, E. coli ATCC 25922 (E. coli [8]; sole activity, Table 6C): 0.06 micrograms/mL; MIC, E. coli NCTC 13441 (E. coli [8]; sole activity, Table 6C): 0.125 micrograms/mL; MIC, K. pneumoniae ATCC 4352 (K. pneumoniae [9]; sole activity, Table 6C): 0.03 micrograms/mL; MIC, K. pneumoniae ATCC BAA-2146 (K. pneumoniae [9]; sole activity, Table 6C): 0.06 micrograms/mL; MIC, P. aeruginosa ATCC 27853 (P. aeruginosa; sole activity, Table 6C): 0.25 micrograms/mL; MIC, P. aeruginosa CCUG 59347 (P. aeruginosa; sole activity, Table 6C): 0.5 micrograms/mL; MIC, A. baumannii ATCC BAA-747 (A. baumannii [10]; sole activity, Table 6C): 0.5 micrograms/mL; MIC, A. baumannii NCTC 13424 (A. baumannii [10]; sole activity, Table 6C): 0.25 micrograms/mL
